{"source": "patent EP3331513B1", "about": "“HYDROALCOHOLIC SOLUTIONS COLOURED WITH CHLORHEXIDINE, METHODS FOR THE PRODUCTION THEREOF, AND USES OF SAME” (Université Claude Bernard Lyon I, priority 2015, dated 2017)", "origin": "cited, not measured here"}
{"smiles": "[H]/N=C(\\N/C(=N/[H])NCCCCCCNC(=N)NC(=N)Nc1ccc(Cl)cc1)Nc1ccc(Cl)cc1", "note": "[digluconate de chlorhexidine]", "values": [{"measurement": "solubilité dans les alcools", "setting": "alcools primaires en C2 et C3, notamment éthanol", "result": "assez soluble"}, {"measurement": "solubilité dans l'eau", "setting": "eau", "result": "miscible à l'eau"}]}
